In US12617818B2, “Compositions and methods for modulating myosin subfragment-2 coiled coil stability and methods for using them” (UNIVERSITY OF NORTH TEXAS, priority 2020, dated 2026):

Test system: rabbit skeletal muscle myofibrils
Test: Myofibrillar contractility assays (20 μL myofibril drop, 18 mM ATP added)
Type: biochemical
Conditions: for % Contraction of imaged myofibril (FIG. 55, 56): after ATP; for IC50: read-out: IC-50 Value (50 percent of the reduction in percent contractility)
Protocol: Propionic acid, imidazole, and Mg(C2H3O2)2 were purchased from Sigma-Aldrich (St. Louis, MO). Boric Acid and KOH were purchased (EM Industries, Gibbstown, NJ). CaCl2) were purchased from Avantor (Center Valley, PA). We used myofibrils previously extracted and prepared from rabbit skeletal muscle as described by Duong and Reisler (1989). Afterwards, we stored the myofibril suspension with glycerol in a 1:1 ratio at −10° C.
We created a buffer solution with 2.2 mM Mg(C2H3O2)2, 10 mM imidazole, 130 mM propionic acid, 0.1 mM CaCl2) and titrated the solution with 10 M KOH until the pH reached 7. We decided to combine these chemicals and target a pH of 7 in order to simulate regular cell conditions for the myofibrils.
We began by extracting 50 mg of the myofibril suspension and adding 1 mL of our buffer into a 2 mL microcentrifuge tube. Next, we centrifuged the tube three times at 5000 RPM for 5 minutes on an IEC Micromax microcentrifuge, thereby isolating the denser myofibril from the lighter glycerol and unnecessary cellular constituents. After each centrifugation, we disposed of the supernatant and filled the microcentrifuge tube to 1 mL again with our buffer. Furthermore, we used a Fisher Vortex Genie 2™ to dislodge the pellet from the bottom of the microcentrifuge tube, making the next centrifugation effective. Following the series of centrifugations, we stored the myofibrils with the buffer in a 4° C. fridge to maintain their biological function. Every 2 days, we prepared new myofibrils with the method described above because previous batches of myofibril would be subject to rigor mortis: muscle death where myofibrils are indefinitely contracted.
A myofibrillar contractility assay tests the effect of certain chemical compounds on myofibril contraction. The assay involves the interaction of myofibrils with ATP, and we measured sarcomere length before and after the addition of ATP to determine percent contractility of myofibrils.
We created an apparatus for myofibrillar contractility assays by attaching a coverslip to a modified petri dish using electrical tape. Each coverslip used on the apparatus can run three assays total. We placed the apparatus on a ZEISS IM35™ inverted microscope equipped with a CANON POWERSHOT A510™ connected to one of the microscope's ocular lenses. Our apparatus allowed us to precisely adjust the field of view of the microscope, enabling efficient and quality imaging (FIG. 8).
To run an assay, we first placed a 20 μL drop of our prepared myofibrils onto the coverslip. Then, we added chemical modifiers (peptides and antibodies) to each droplet as needed and used a CARL ZEISS PLAN 40/0.65 160/0.17™ objective lens to focus on the myofibrils with the microscope. Since the antibodies have a much larger molecular mass than the peptides, we determined that the antibodies would also require a longer period of time to diffuse throughout the myofibril droplet. We allowed the antibodies a minimum of 5 minutes to diffuse into the myofibril solution while we gave peptide modifiers 30 seconds to settle into the solution.
These myofibrils would be likely to show evidence of contraction when they interacted with the ATP in the assay. We photographed the chosen myofibril before the addition of ATP. Then, we pipetted 2 μL of 18 mM ATP on the myofibril droplet, and we typically observed a visible contraction within 30 seconds. We needed to carefully watch the camera screen when adding the ATP because the addition of ATP solution onto the drop or the motion of the myofibril as it contracted would occasionally displace the myofibril. If the myofibril moved, we adjusted our field of view accordingly so that the myofibril was visible once again.
After the contraction concluded, we re-imaged the myofibril to compare the current sarcomere length with the initial sarcomere length. […]

| EC50 (read-out: EC-50 value (50 percent of the increase in percent contraction)) | IC50 | SMILES | % Contraction (20 nM) | After (sarcomere length after ATP) (20 nM) | Before (sarcomere length before ATP) (20 nM) | % Contraction (40 nM) | After (sarcomere length after ATP) (40 nM) | Before (sarcomere length before ATP) (40 nM) | % Contraction of imaged myofibril (FIG. 55, 56) (40 nM) | % Contraction (80 nM) | After (sarcomere length after ATP) (80 nM) | Before (sarcomere length before ATP) (80 nM) | % Contraction (200 nM) | After (sarcomere length after ATP) (200 nM) | Before (sarcomere length before ATP) (200 nM) | induction of contraction compared to control group (high concentrations) | % Contraction (10 nM) | After (sarcomere length after ATP) (10 nM) | Before (sarcomere length before ATP) (10 nM) |
| --- | --- | --- | --- | --- | --- | --- | --- | --- | --- | --- | --- | --- | --- | --- | --- | --- | --- | --- | --- |
| 8 ± 4 nM | 12 ± 6 nM | CSCC[C@H](NC(=O)[C@H](CCC(=O)O)NC(=O)[C@H](CCCNC(=N)N)NC(=O)[C@H](CCC(=O)O)NC(=O)[C@H](CC(=O)O)NC(=O)[C@H](CCC(=O)O)NC(=O)[C@H](CC(C)C)NC(=O)[C@H](CCCNC(=N)N)NC(=O)[C@H](CCC(=O)O)NC(=O)[C@H](CC(N)=O)NC(=O)[C@H](CCSC)NC(=O)[C@@H](N)CCC(=O)O)C(=O)N[C@@H](CCCCN)C(=O)N[C@@H](C)C(=O)N[C@@H](CCC(=O)O)C(=O)N[C@@H](CC(C)C)C(=O)N[C@H](C(=O)N[C@@H](C)C(=O)N[C@@H](CCCCN)C(=O)O)[C@@H](C)O [Destabilizer] | 21 ± 3% | 1.7 μm | 2.2 μm | 25 ± 8% | 1.7 μm | 2.2 μm | 30% | 32 ± 4% | 1.5 μm | 2.3 μm | 35 ± 7% | 1.5 μm | 2.3 μm | more than two-fold |  |  |  |
|  | 68 ± 27 nM | C[C@H](NC(=O)[C@H](CCCCN)NC(=O)[C@H](Cc1ccccc1)NC(=O)[C@H](CCCCN)NC(=O)[C@H](CCCCN)NC(=O)[C@H](CCCCN)NC(=O)[C@H](CCCCN)NC(=O)[C@H](CCCCN)NC(=O)[C@H](CCCCN)NC(=O)[C@H](CCCCN)NC(=O)[C@@H](N)CCCCN)C(=O)N[C@@H](CCCCN)C(=O)N[C@@H](CCCCN)C(=O)N[C@@H](CCCCN)C(=O)N[C@@H](CCCCN)C(=O)N[C@@H](CCCCN)C(=O)N[C@@H](CCCCN)C(=O)O [Stabilizer] |  |  |  | 10 ± 1% | 1.9 μm | 2.2 μm | 11% | 9 ± 2% | 2.0 μm | 2.2 μm | 8 ± 1% | 2.0 μm | 2.2 μm |  | 12 ± 2% | 1.9 μm | 2.1 μm |
